Key:
[1] = Measurement of Log P values by HPLC on reversed phase columns (EEC directive 79/831 Annex V.A8); format: physicochemical; conditions: LogP
Experimental: Measurement of Log P values as provided herein was performed according to EEC directive 79/831 Annex V.A8 by HPLC (High Performance Liquid Chromatography) on reversed phase columns with the following methods: • ^[a] Log P value is determined by measurement of LC-UV, in an acidic range, with 0.1% formic acid in water and acetonitrile as eluent (linear gradient from 10% acetonitrile to 95% acetonitrile). • ^[b] Log P value is determined by measurement of LC-UV, in a neutral range, with 0.001 molar ammonium acetate solution in water and acetonitrile as eluent (linear gradient from 10% acetonitrile to 95% acetonitrile). • ^[c] Log P value is determined by measurement of LC-UV, in an acidic range, with 0.1% phosphoric acid and acetonitrile as eluent (linear gradient from 10% acetonitrile to 95% acetonitrile).
If more than one Log P value is available within the same method, all the values are given and separated by “+”.
Calibration was done with straight-chain alkan2-ones (with 3 to 16 carbon atoms) with known Log P values (measurement of Log P values using retention times with linear interpolation between successive alkanones). Lambda-max-values were determined using UV-spectra from 200 nm to 400 nm and the peak values of the chromatographic signals

Alternaria alternata = Alternaria alternata in vitro cell test; format: cell-based; conditions: 120 h, 20 ppm of active ingredient, 5 days incubation, liquid culture, spectrometric measurement of mycelium growth, read-out: efficacy (inhibition of fungal growth)
Experimental: (§1) • Solvent: DMSO • Culture medium: 14.6 g anhydrous D-glucose (VWR), 7.1 g Mycological Peptone (Oxoid), 1.4 g granulated Yeast Extract (Merck), QSP 1 liter • Inoculum: spore suspension Fungicides were solubilized in DMSO and the solution used to prepare the required range of concentrations. […] A spore suspension of A. alternata was prepared and diluted to the desired spore density. Fungicides were evaluated for their ability to inhibit spore germination and mycelium growth in liquid culture assay. The compounds were added in the desired concentration to the culture medium with spores. After 5 days incubation, fungi-toxicity of compounds was determined by spectrometric measurement of mycelium growth. Inhibition of fungal growth was determined by comparing the absorbance values in wells containing the fungicides with the absorbance in control wells without fungicides.

Pyricularia oryzae = assay: microbe, parasite or virus in culture; format: cell-based; conditions: 120 h, read-out: efficacy (inhibition of fungal growth)
[2] = tested on: Colletotrichum lindemuthianum; assay: Colletotrichum lindemuthianum in vitro cell test; format: cell-based; conditions: 144 h, 20 ppm of active ingredient, 6 days incubation, liquid culture, spectrometric measurement of mycelium growth, read-out: efficacy (inhibition of fungal growth)
Experimental: as §1, with “of C. lindemuthianum” for “of A. alternata”, “inhibit spores” for “inhibit spore”, “After 6” for “After 5”

Pyrenophora teres = Pyrenophora teres in vitro cell test; format: cell-based; conditions: 144 h, 20 ppm of active ingredient, 6 days incubation, liquid culture, spectrometric measurement of mycelium growth, read-out: efficacy (inhibition of fungal growth)
Experimental: as §1, with “P. teres” for “A. alternata”, “6” for “5”

Botrytis cinerea [3] = assay: Botrytis cinerea in vitro cell test; format: cell-based; conditions: 144 h, 20 ppm of active ingredient, 6 days incubation, liquid culture, spectrometric measurement of mycelium growth, read-out: efficacy (inhibition of fungal growth)
Experimental: (§2) • Solvent: DMSO • Culture medium: 1 g KH2PO4 (VWR), 1 g K2HPO4 (VWR), 0.5 g Urea (VWR), 3 g KNO3 (Prolabo), 10 g saccharose (VWR), 0.5 g MgSO4, 7H2O (Sigma), 0.07 g CaCl2, 2H2O (Prolabo), 0.2 mg MnSO4, H2O (Sigma), 0.6 mg CuSO4, 5H2O (Sigma), 7.9 mg ZnSO4, 7H2O (Sigma), 0.1 mg H3BO3 (Merck), 0.14 mg NaMoO4, 2H2O (Sigma), 2 mg thiamine (Sigma), 0.1 mg biotine (VWR), 4 mg FeSO4, 7H2O (Sigma), QSP 1 liter • Inoculum: spore suspension Fungicides were solubilized in DMSO and the solution used to prepare the required range of concentrations. […] A spore suspension of B. cinerea was prepared and diluted to the desired spore density. Fungicides were evaluated for their ability to inhibit spore germination and mycelium growth in liquid culture assay. The compounds were added in the desired concentration to the culture medium with spores. After 6 days incubation, fungi-toxicity of compounds was determined by spectrometric measurement of mycelium growth. Inhibition of fungal growth was determined by comparing the absorbance values in wells containing the fungicides with the absorbance in control wells without fungicides.

Alternaria brassicae = assay: In vivo preventive test on Alternaria brassicae (leaf spot on radish or cabbage); conditions: 144 h, 500 ppm of active ingredient, preventive spray on young radish or cabbage plants, evaluated 6 days after inoculation, read-out: efficacy
Experimental: (§3) The active ingredients were made soluble and homogenized in a mixture of Dimethyl sulfoxide/Acetone//Tween®80 and then diluted in water to the desired concentration. The young plants of radish or cabbage were treated by spraying the active ingredient prepared as described above. Control plants were treated only with an aqueous solution of Acetone/Dimethyl sulfoxide/Tween® 80. After 24 hours, the plants were contaminated by spraying the leaves with an aqueous suspension of Alternaria brassicae spores.

Botrytis cinerea [4] = assay: In vivo preventive test on Botrytis cinerea (grey mould); conditions: 500 ppm of active ingredient, preventive spray on young gherkin or cabbage plants, evaluated 4 to 5 days after inoculation, read-out: efficacy
Experimental: as §3, with “gherkin” for “radish”, “Botrytis cinerea” for “Alternaria brassicae”

Sphaerotheca fuliginea = assay: In vivo preventive test on Sphaerotheca fuliginea (powdery mildew on cucurbits); conditions: Podosphaera fuliginea, 192 h; 500 ppm of active ingredient; preventive spray on young gherkin plants; evaluated 8 days after inoculation; read-out: efficacy
Experimental: as §3, with “gherkin” for “radish or cabbage”, “Sphaerotheca fuliginea” for “Alternaria brassicae”

[5] = tested on: Colletotrichum lindemuthianum; assay: In vivo preventive test on Colletotrichum lindemuthianum (leaf spot on bean); conditions: 168 h, 500 ppm of active ingredient, preventive spray on young bean plants, evaluated 7 days after inoculation, read-out: efficacy
Experimental: as §3, with “bean” for “radish or cabbage”, “Colletotrichum lindemuthianum” for “Alternaria brassicae”

Septoria tritici = Septoria tritici in vitro cell test; format: cell-based; conditions: Zymoseptoria tritici, 168 h; 20 ppm of active ingredient; 7 days incubation; liquid culture, spectrometric measurement of mycelium growth; read-out: efficacy (inhibition of fungal growth)
Experimental: as §2, with “S. tritici” for “B. cinerea”, “After 6 days incubation, fungi-toxicity of compounds was determined by spectrometric measurement of mycelium growth.” left out

SMILES | chromatographic logP [1] | inhibition at 20 ppm (Alternaria alternata) [%] | inhibition at 20 ppm (Pyricularia oryzae) [%] | inhibition at 20 ppm [2] [%] | inhibition at 20 ppm (Pyrenophora teres) [%] | inhibition at 20 ppm (Botrytis cinerea [3]) [%] | pest or weed control at 500 ppm (Alternaria brassicae) [%] | pest or weed control at 500 ppm (Botrytis cinerea [4]) [%] | pest or weed control at 500 ppm (Sphaerotheca fuliginea) [%] | pest or weed control at 500 ppm [5] [%] | inhibition at 20 ppm (Septoria tritici) [%]
Cc1ncc(Oc2cccc(Cl)c2)c(C2=NOC[C@@H](c3ccc4c(c3)OCCO4)N2)n1 (racemic) [Compound I-031] | 3.04 | 90 to 100 | 90 to 100 | 90 to 100 | 90 to 100 | 90 to 100 | – | – | – | – | –
COc1ccc(C[C@@H]2CON=C(c3nc(C)ncc3Oc3cccc(C(F)(F)F)c3)N2)c(Cl)c1 (racemic) [Compound I-012] | 4.08 | – | – | – | 90 to 100 | 90 to 100 | 90 to 100 | 90 to 100 | 90 to 100 | 90 to 100 | –
Cc1ncc(Oc2cccc(Cl)c2)c(C2=NO[C@@H](F)[C@@H](c3ccc(Cl)cc3)N2)n1 (racemic) [Compound I-028] | 3.79 | 90 to 100 | 90 to 100 | – | 90 to 100 | 90 to 100 | – | – | – | – | 90 to 100
Cc1ncc(Oc2cccc(C(F)(F)F)c2)c(C2=NOC[C@@H](Cc3csc(C(F)(F)F)c3)N2)n1 (racemic) [Compound I-015] | 4.17 | 70 to 79 | – | 90 to 100 | 90 to 100 | 90 to 100 | 80 to 89 | 70 to 79 | 80 to 89 | 90 to 100 | –
Cc1ccc([C@@H]2CON=C(c3nc(C)ncc3Oc3cccc(Cl)c3)N2)c(C)c1 (racemic) [Compound I-034] | 3.8 | 90 to 100 | – | 70 to 79 | 90 to 100 | 90 to 100 | – | – | – | – | –
CSc1ncc(Oc2cccc(C(F)(F)F)c2)c(C2=NOC[C@@H](Cc3ccc(C)cc3Cl)N2)n1 (racemic) [Compound I-020] | 5.14 | – | – | 90 to 100 | 90 to 100 | 90 to 100 | 90 to 100 | 90 to 100 | 90 to 100 | – | 70 to 79
Cc1ccc(C[C@@H]2CON=C(c3nc(C)ncc3Oc3cccc(OC(F)F)c3)N2)c(C)c1 (racemic) [Compound I-007] | 3.94 | 70 to 79 | – | 90 to 100 | 90 to 100 | 90 to 100 | 90 to 100 | 90 to 100 | 90 to 100 | 90 to 100 | –
Cc1ccc(C[C@H](CCl)NC(=NO)c2nc(C)ncc2Oc2cccc(Cl)c2F)c(Cl)c1 (racemic) [Compound 11-06] | 4.16 | – | – | – | – | – | – | – | – | – | –
CSc1ncc(Br)c(C2=NOC[C@@H](Cc3ccc(C)cc3C)N2)n1 (racemic) [Compound 7-02] | 4.05 | – | – | – | – | – | – | – | – | – | –
Cc1ccc([C@H](N)CC(N)=O)c(C)c1 (racemic) [Compound 9-05] | 0.55 | – | – | – | – | – | – | – | – | – | –
Cc1ncc(Oc2cccc(C(F)(F)F)c2)c(C(=NO)N[C@@H](CCl)Cc2ccc(OC(F)F)cc2Cl)n1 (racemic) [Compound 11-09] | 4.08 | – | – | – | – | – | – | – | – | – | –
Cc1ncc(Oc2cccc(C(F)(F)F)c2)c(C2=NOC[C@@H](Cc3ccc(OC(F)F)cc3Cl)N2)n1 (racemic) [Compound I-027] | 4.15 | 90 to 100 | – | – | 90 to 100 | 90 to 100 | 90 to 100 | 90 to 100 | 90 to 100 | 90 to 100 | 90 to 100

Source: patent US12565489B2, “Heterocyclyl pyrimidines and triazines as novel fungicides” (Bayer Aktiengesellschaft, priority 2020, dated 2026)
